From US20250171404A1, “PCNA INHIBITORS AND USES THEREOF” (CITY OF HOPE, priority 2022, published 2025)

Legend:
[1] = system: SK-N-DZ neuroblastoma cells; test: Apoptosis (sub-G1, TUNEL assay), cancer cells; assay type: cell-based, human; details: 500 nM, 24 h
Description: (§1) FIGS. 3A-3D. Therapeutic properties of AOH1996. FIG. 3A: Normal cells (7SM0032) or cancer cells (SH-SY5Y and SK-N-BE(2)c) cells were fixed, stained with PI, and analyzed by flow cytometry following treatment with 500 nM AOH1996 for the indicated time. FIG. 3B: SK-N-DZ neuroblastoma cells and nonmalignant 7SM0032 stem cells were incubated with 500 nM AOH1996 for 24 h. Then, after being fixed on slides, cell apoptosis were analyzed by a TUNEL assay. Left: TMR fluorophore attached to the free ends of DNA indicates cells undergoing apoptosis. DAPI stained nuclei also shown. Right: Average abundance ±S.D. of apoptotic 7SM0032 (black histogram) and SK-N-DZ (grey histogram) cells relative to the total number of cells are shown in 5 randomly selected fields. […] The relative number of colonies determined in triplicates for each treatment condition were averaged and graphed ±SDs (*, P<0.01). […] Cell growth was measured as the percentage of cell confluence by imaging every 6 h for a total of 48 h.
(§2) Cell apoptosis was measured on a chamber slide at a seeding density of 1×10^5/mL. After treatment with 500 nM AOH1996 for 24 h, cells were fixed and analyzed by a TUNEL assay using the TMR red in situ cell death detection kit (Roche Diagnostics).

[2] = Oral pharmacokinetic study in mice; assay type: in vivo, ES1^e/SCID mice
Description: (§3) FIGS. 4A-4H. Pharmacokinetics and anti-tumor growth activity of AOH1996 in vivo. FIG. 4A: After oral administration, the plasma concentrations of AOH1996 from three male and three female ES1^e/SCID mice at the indicated time points were averaged and graphed ±S.D. The inset contains PK parameters determined by a standard noncompartmental method. FIG. 4B: A similar PK study of AOH1996 was performed in dogs. FIGS. 4C-4E: Mice bearing the xenograft tumors of neuroblastoma (FIG. 4C: SK-N-BE(2)c), breast cancer (FIG. 4D: MDA-MB-468), and small-cell lung cancer (FIG. 4E: H82) were given vehicle only (black) or 40 mg/kg of AOH1996 (grey) twice daily immediately after the first measurement. Tumor sizes were measured by a dial caliper each week. Tumor volumes (0.4×L×W^2) were averaged and graphed ±S.E. (*, P<0.01). FIG. 4F: Animal body weight was monitored throughout the studies as an indicator of toxicity. Shown is a typical study results from the study of the SK-N-BE(2)c tumor model described in (FIG. 4C). FIG. 4G: The levels of phosphor-Chk1 (pChk1) and γH2A.X in SK-N-BE(2)c derived tumor samples were analyzed by IHC. Shown are representative images taken from tumors treated by vehicle only or by 40 mg/kg AOH1996. FIG. 4H: ES1^e/SCID mice bearing SK-N-AS derived xenograft tumors were treated with either 80 mg/kg of AOH1996 (black, n=7) for 8 d beginning 8 d after tumor implantation, 15 mg/kg of CPT-11 (n=8) for 3 d beginning 12 d after tumor implantation, or both agents (combination, n=8) under the same dosages and schedules as they were dosed alone. Mice implanted with the same tumor and left untreated were used as control (n=8). Shown are the survival graphs. The p values determined by the Log-rank (Mantel-Cox) test between combination treatment and each of the control groups are p=0.0003 (Combination vs. NoRx), p=0.005 (Combination vs. AOH1996 alone), and p=0.024 (Combination vs. CPT-11 alone).
The improved stability of AOH1996 (FIGS. 12A-12E) translated into a significant benefit in the pharmacokinetics (PK).
Pharmacokinetic (PK) study in animals. An oral dosing solution was prepared by dissolving AOH1996 (40 mg) in a mixture of Kolliphor EL (840 mg) and Poloxamer P124 (120 mg). For the mouse study, blood samples were collected from ES1^e/SCID mice (3 male and 3 female) per dosing group by cardiac puncture at 10, 20, and 30 min and 1, 2, 4, 6, and 24 h after dosing. For the dog study, blood samples were collected from 3 male beagle dogs per dosing group by venipuncture of peripheral veins at 5, 15, and 30 min and 1, 2, 4, 8, 12, and 24 h after dosing. Following removal of blood cells, plasma concentration of AOH1996 was determined by LC-MS/MS as described (Gu et al., 2018). Oral PK was determined using standard non-compartmental methods.

[3] = system: 7SM0032; test: Apoptosis (TUNEL assay), nonmalignant cells; assay type: cell-based, human; details: 500 nM, 24 h; 7SM0032 cells
Description: as §1, §2

[4] = system: SK-N-AS derived xenograft tumors; test: Survival of mice bearing xenograft tumors, AOH1996 with CPT-11; assay type: in vivo, ES1^e/SCID mice; details: AOH1996 80 mg/kg oral 8 d; CPT-11 15 mg/kg i.p. 3 d; vs untreated
Description: as §3, with “Shown is a typical study results from the study of the SK-N-BE(2)c tumor model described in (FIG. 4C).” left out, “Shown are representative images taken from tumors treated by vehicle only or by 40 mg/kg AOH1996. FIG. 4H: ES1^e/SCID mice bearing SK-N-AS derived xenograft tumors were treated with either 80 mg/kg of AOH1996 (black, n=7) for 8 d beginning 8 d after tumor implantation, 15 mg/kg of CPT-11 (n=8) for 3 d beginning 12 d after tumor implantation, or both agents (combination, n=8) under the same dosages and schedules as they were dosed alone. Mice implanted with the same tumor and left untreated were used as control (n=8). Shown are the survival graphs.” left out, “alone). […]” for “alone).”
In vivo tumor model. […] Tumor size and animal weight were measured weekly. […]

## COc1cccc(Oc2ccccc2NC(=O)CNC(=O)c2cccc3ccccc23)c1 [AOH1996, N-(2-((2-(3-methoxyphenoxy)phenyl)amino)-2-oxoethyl)-1-naphthamide]
[1]
  apoptosis (sub-G1 population, TUNEL positivity): induced apoptosis
[2]; 40 mg/kg, mice
  half-life: 4.33 h
  increase in area under curve (AUC) vs AOH1160: ~4%
  increase in half-life vs AOH1160: ~27%
  increase in peak concentration (Cmax) vs AOH1160: ~40%
[2]; animals, data not shown
  absorption into circulation: ~90%
[3]
  apoptosis: Nor does it induce apoptosis in 7SM0032 cells
[4]
  increase of median survival: ~11.5%
